Laboratory results: patent publication US20250353819A1, “ARYL HYDANTOIN COMPOUNDS AND METHODS OF USE” (priority 2022, published 2025)
Several values for one entry are separate records, joined by “and”; a condition that tells them apart may be missing. Equal entries are not always repeated. Where two headings read alike, the source gives them in different places.

Columns and labels:
[1] = In vitro metabolic stability, human liver microsomes; type: in vitro ADME; settings: human liver microsomes; read-out: h CLint
Protocol: In Vitro Metabolic Stability. As described by Charman et al. (2020), metabolic stability assays were performed by incubating test compounds in liver microsomes at 37° C. and 0.4 mg/mL protein concentration. The metabolic reaction was initiated by the addition of an NADPH-regenerating system and quenched at various time points over a 60 min incubation period by the addition of acetonitrile containing diazepam as internal standard. Control samples (containing no NADPH) were included (and quenched at 2, 30 and 60 min) to monitor for potential degradation in the absence of cofactor.

[2] = Mouse exposure / pharmacokinetic studies; type: in vivo, mice
[3] = Stability in human cryopreserved hepatocytes; type: in vitro ADME
[4] = Stability in dog cryopreserved hepatocytes; type: in vitro ADME; settings: Dog cryopreserved hepatocytes
[5] = Plasma protein binding, dog plasma; type: in vitro ADME; settings: read-out: % bound (converted)
[6] = Plasma protein binding, mouse plasma; type: in vitro ADME; settings: mouse, plasma, read-out: % bound (converted)
[7] = Whole blood-to-plasma ratio, rat; type: in vitro ADME
Protocol: As part of the assessment of the IV pharmacokinetics, an additional blood sample was collected from each rat at 1 h post dose for the purposes of determining the whole blood-to-plasma (B/P) ratio. Arterial blood was collected into tubes containing heparin. The haematocrit was determined via centrifugation (13000×g for 4 min using a Clemets® Microhematocrit centrifuge and Safecap® Plain Self-sealing Mylar Wrapped capillary tubes), and values ranged from 41% to 42%. Each blood aliquot ([…]) was collected and matrix matched with an equivalent volume of blank plasma. The remainder of the blood sample was centrifuged and […] plasma aliquot was collected and matrix matched with an equivalent volume of blank blood. Samples were frozen on dry ice and stored at −80° C. until analysis by LC-MS.

CYP 2C19 = CYP 2C19 (Homo sapiens (Human), UniProt P33261); assay: CYP inhibition in human liver microsomes, 2C19; type: in vitro ADME
[8] = Pharmacokinetics in male Sprague Dawley rats; type: in vivo, rat; settings: IV 1 mg/kg; for clearance / Vd / AUC: male, Sprague Dawley, rat, in vivo, iv, 1 mg/kg, rats; for AUC: read-out: Plasma AUCIV
Protocol: IV and oral formulations were prepared using the same method. On the day of dosing the solid compound was dissolved in DMSO prior to addition of a saline solution (0.9% w/v). The samples were then mixed using vortexing producing colourless solutions. The IV formulation was filtered through a 0.22 μm syringe filter prior to dosing and the oral formulation was dosed without filtration.
Samples of arterial blood were collected up to 168 h post-dose. Urine samples were not collected as animals were housed in bedded cages. Arterial blood was collected directly into borosilicate vials (at 4° C.) containing heparin as anticoagulant. Once collected, blood samples were centrifuged, supernatant plasma was removed and stored frozen (−80° C.) until analysis by LC-MS. A summary of the bioanalytical method and assay validation details is included in Tables 14 and 15.
Plasma concentration versus time data were analysed using non-compartmental methods (PKSolver Version 2.0). Standard calculations for each pharmacokinetic parameter are listed below.

Chain of CYP 2C19 (P33261 whole entry): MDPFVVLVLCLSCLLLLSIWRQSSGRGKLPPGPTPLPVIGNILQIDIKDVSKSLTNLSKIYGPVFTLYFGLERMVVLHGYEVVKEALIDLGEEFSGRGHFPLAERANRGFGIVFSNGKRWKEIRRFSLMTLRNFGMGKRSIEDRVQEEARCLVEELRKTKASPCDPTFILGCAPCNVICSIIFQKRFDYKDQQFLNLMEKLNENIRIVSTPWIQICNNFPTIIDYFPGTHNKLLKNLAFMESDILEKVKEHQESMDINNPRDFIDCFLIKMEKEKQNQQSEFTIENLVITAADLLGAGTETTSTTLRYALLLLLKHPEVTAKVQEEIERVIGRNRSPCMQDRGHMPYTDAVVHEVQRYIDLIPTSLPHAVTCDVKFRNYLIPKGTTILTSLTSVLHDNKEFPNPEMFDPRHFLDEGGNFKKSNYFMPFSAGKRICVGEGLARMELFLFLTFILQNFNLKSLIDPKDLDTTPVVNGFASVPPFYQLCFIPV

## CC1(C)NC(=O)N(c2ccc(F)c(C(C)(F)F)c2)C1=O [Compound IC, 3-(3-(1,1-difluoroethyl)-4-fluorophenyl)-5,5-dimethylimidazolidine-2,4-dione]
[1]
  microsomal CLint: 7 µL/min/mg
[2]; male, Swiss outbred, mouse, in vivo, iv, 1 mg/kg, mice, IV, mean dose 1.0 mg/kg, read-out: Plasma CL
  clearance: 1.96 mL/min/kg
[2]; male, Swiss outbred, mouse, in vivo, 100 mg/kg PO in mice, read-out: AUC0-last
  AUC(0-t): 1560 µg·h/mL
[2]; male, Swiss outbred, mouse, in vivo, 100 mg/kg PO in mice, read-out: Cmax
  Cmax: 40000 ng/mL
[2]; male, Swiss outbred, mouse, in vivo, mice, IV, mean dose 1.0 mg/kg, read-out: Plasma AUC0-48 h
  AUC(0-t): 8.48 µg·h/mL
[2]; male, Swiss outbred, mouse, in vivo, mice, IV, mean dose 1.0 mg/kg, read-out: Plasma AUC0-inf
  AUC(0-inf): 8.52 µg·h/mL
[2]; male, Swiss outbred, mouse, plasma, mice, IV, mean dose 1.0 mg/kg, read-out: Apparent t1/2 (converted)
  half-life: 8.9 h
[2]; mice, IV, mean dose 1.0 mg/kg
  PlasmaVSS: 1.64 L/kg
[3]
  CLint: <1 μL/min/10^6
[4]
  CLint: <1.9 μL/min/10^6
[5]
  fraction unbound: 0.36
[6]
  fraction unbound: 0.38
[7]
  B:P: 1.2
CYP 2C19
  IC50: > 20 µM
[8]; 0.17 h, individual rats
  Plasma Concentration: 1292 ng/mL and 1300 ng/mL and 908 ng/mL
[8]; 0.17 h, mean
  Plasma Concentration: 1167 ng/mL
[8]; 1.17 h, individual rats
  Plasma Concentration: 728 ng/mL and 549 ng/mL and 529 ng/mL
[8]; 1.17 h, mean
  Plasma Concentration: 602 ng/mL
[8]; 2.17 h, individual rats
  Plasma Concentration: 701 ng/mL and 669 ng/mL and 469 ng/mL
[8]; 2.17 h, mean
  Plasma Concentration: 613 ng/mL
[8]; 4.17 h, individual rats
  Plasma Concentration: 640 ng/mL and 662 ng/mL and 420 ng/mL
[8]; 4.17 h, mean
  Plasma Concentration: 574 ng/mL
[8]; 7.17 h, individual rats
  Plasma Concentration: 569 ng/mL and 641 ng/mL and 493 ng/mL
[8]; 7.17 h, mean
  Plasma Concentration: 568 ng/mL
[8]; 12.17 h, individual rats
  Plasma Concentration: 545 ng/mL and 473 ng/mL and 480 ng/mL
[8]; 12.17 h, mean
  Plasma Concentration: 499 ng/mL
[8]; 24.17 h, individual rats
  Plasma Concentration: 340 ng/mL and 403 ng/mL and 268 ng/mL
[8]; 24.17 h, mean
  Plasma Concentration: 337 ng/mL
[8]; 36.17 h, individual rats
  Plasma Concentration: 215 ng/mL and 266 ng/mL and 216 ng/mL
[8]; 36.17 h, mean
  Plasma Concentration: 232 ng/mL
[8]; 48.17 h, individual rats
  Plasma Concentration: 125 ng/mL and 170 ng/mL and 97 ng/mL
[8]; 48.17 h, mean
  Plasma Concentration: 130 ng/mL
[8]; 72.17 h, individual rats
  Plasma Concentration: 46.8 ng/mL and 62.2 ng/mL and 33.5 ng/mL
[8]; 72.17 h, mean
  Plasma Concentration: 47.5 ng/mL
[8]; 96.17 h, individual rats
  Plasma Concentration: 11.5 ng/mL and 28.1 ng/mL and 13.6 ng/mL
[8]; 96.17 h, mean
  Plasma Concentration: 17.7 ng/mL
[8]; 120.17 h, individual rats
  Plasma Concentration: 3.1 ng/mL and 7.0 ng/mL and 2.6 ng/mL
[8]; 120.17 h, mean
  Plasma Concentration: 4.2 ng/mL
[8]; 144.17 h, individual rats
  Plasma Concentration: 3.0 ng/mL
[8]; 144.17 h, mean
  Plasma Concentration: 3.0 ng/mL
[8]; individual rats, read-out: Blood CL
  clearance: 0.664 mL/min/kg
[8]; individual rats, read-out: Blood Vss
  Vd: 0.948 L/kg
[8]; individual rats
  AUC: 20.9 µg·h/mL
[8]; individual rats, read-out: Plasma CL
  clearance: 0.797 mL/min/kg
[8]; individual rats, read-out: Plasma Vss
  Vd: 1.14 L/kg
[8]; mean (n = 3)
  AUC: 20.6 µg·h/mL
[8]; mean (n = 3), read-out: Plasma CL
  clearance: 0.825 mL/min/kg
[8]; mean (n = 3), read-out: Plasma Vss
  Vd: 1.25 L/kg
[8]; mean, read-out: Blood CL
  clearance: 0.687 mL/min/kg
